The text below walks through data of patent US20070292403A1, “Methods of treating a neurological disorder with creatine monohydrate” (priority 2006, published 2007).

Common to all, as to format: in vivo, human
In one data set the test system is patients with ALS. Kind of data set: Example 4: combined survival analysis of two placebo-controlled trials in amyotrophic lateral sclerosis. The following applies: 5 gm per day. How it is done: The two trials analyzed included a total of 211 patients, 103 creatine-treated and 108 placebo-treated subjects.
For this analysis, a measure of treatment effect in an estimated pooled hazard ratio was calculated. This measure gives the risk of death for treated subjects divided by the risk of death for controls. Survival analysis by treatment was also performed for each trial separately. A Cox model was used to assess the hazard ratios and survival by treatment in the pooled data, controlling for trial effect and baseline variables. Baseline characteristics of the study populations were also compared. Continuous variables were compared by treatment and trial, using the analysis of variance by putting both treatment and trial as the […] variables. A Cochran-Mantel-Haenszel test statistic was used to compare discrete variables by treatment and trial, controlling for trial and treatment effects, respectively.

Data set [1] in a line: Example 1: serum creatine levels and brain creatine by magnetic resonance spectroscopy. The following applies: for Increase in absolute creatine concentration by MRS: by week 16, 8 g/day, p<0.05, returned to baseline at week 24. The text has this: Study protocol. Subjects were screened within 25 days of randomization (baseline visit). Screening included assessment of eligibility criteria, medical history, physical examination, Unified Huntington's Disease Rating Scale (UHDRS), EKG, DNA analysis, complete blood count, chemistry panel, and urinalysis. Subjects were on study drug (creatine or placebo) for 16 weeks, followed by an 8-week washout. Study visits occurred at baseline, weeks 8, 16, and 24 with telephone contacts at weeks 1, 10 and 20. Physical examination was done at screening and week 16. UHDRS scores, vital signs, adverse event assessment, and safety laboratory tests were repeated at all visits. Blood was collected for serum creatine levels and serum 8-hydroxy-2′-deoxyguanosine (8OH2′dG), a measure of oxidative injury affecting DNA. The later was analyzed in the samples from two sites. Magnetic resonance spectroscopy (MRS; STEAM; TR/TE=6000/20 milliseconds) of frontal cortex (voxel size=56 cc) and occipital cortex (voxel size=18 cc) performed at one site was analyzed for this report. Subject compliance was assessed by wafer counts.

The subject of data set [2] is subjects with early Parkinson's disease (PD). Kind of data set: Example 2: randomized double-blind futility trial, change in total UPDRS. How it is done:
Study Design and Randomization. This example was a single arm futility study designed to assess creatine and minocycline. A placebo arm for calibration was included in the example. Eligible subjects were randomly assigned in a 1:1:1 fashion to receive 1) 10 g/day of creatine monohydrate and placebo minocycline, 2) placebo creatine monohydrate and 200 mg/day of minocycline, or 3) placebo creatine monohydrate and placebo minocycline. The primary futility analysis was at 12 months of follow-up, but each subject was followed for 18 months for additional safety information. Subjects and investigators were kept blinded to treatment group.
Participants. […] Two of the three cardinal manifestations of PD (tremor, rigidity, and bradykinesia) were required; these findings had to be asymmetric. The diagnosis of PD must have been made within 5 years of randomization. Women of childbearing potential were required to use adequate birth control and have a negative pregnancy test at baseline. Subjects were excluded if they had any secondary causes of parkinsonism, such as drug induced parkinsonism or structural lesions; had atypical parkinsonian syndromes; gait freezing or impairment in postural reflexes; had prior stereotaxis surgery for PD; used creatine, minocycline, or any investigational agent within 90 days prior to randomization; had known hypersensitivity to creatine or minocycline; used CoQ10 in doses greater than 300 mg 90 days prior to randomization; or had any clinically significant medical condition that could interfere with the subject's ability to safely participate in the study or be followed.
Dosages. Creatine was administered as 5 g sachets mixed with 8 ounces of liquid taken twice a day and minocycline was administered as 100 mg capsules taken twice a day. Both were taken with meals.
Outcome measures. […] Disability was assessed by the sight investigator, based on impairment in ambulation, activities in daily living, and occupational status. […] Both the site investigator and medical monitors assessed the potential relationship between SAEs and study drug. […]

The test system of data set [3] is symptomatic subjects with Huntington's disease. Kind of data set: Example 3: open-label dose escalation (10-40 grams per day), tolerability, safety and UHDRS. How it is done:
A two-phase open-label study was conducted to better determine an optimal dose of creatine symptomatic subjects with Huntington's disease. A dose-escalation study (10-40 grams per day) was conducted to determine the maximally tolerated dose (MTD) followed by a de-escalation phase to assess whether brain and serum levels of creatine might be maximal at doses lower than the MTD. Ten subjects were enrolled and followed prospectively for two weeks at each done level increasing in 5-gram increments during dose escalation that lasted 13 weeks. Assessments at each visit included UHDRS, EKG, vital signs, clinical safety and research labs. MRI spectroscopy was conducted prior to baseline at peak done (40 grams) and one month after de-escalation to either 30 or 15 grams daily. To determine an optimal dose, pharmacokinetic as well as clinical data were considered. Once the maximal dose was reached, subjects were assigned one of two lower doses previously taking (15 grams a day (n=5) or 30 grams a day (n=5)). Serum creatine was assessed at baseline, at the end of each 2-week dose escalation step and at the end of the de-escalation phase to assess the correspondence between serum and brain levels of creatine at steady state.

With `CN(CC(=O)O)C(=N)N` [Creatine, creatine monohydrate], the “Improvement of median survival over placebo” value in the data set on patients with ALS (pooled data) is “two-to-three”. The “Adjusted hazard ratio, creatine group relative to placebo group” value in the data set on patients with ALS (pooled data of two trials, Cox model, 95% confidence interval 0.11 to 1.04, p=0.059) stood at 0.34. Besides, the Median survival with patients with ALS (pooled data, placebo 27 months) was determined as 87 months. Moreover, the “Hazard ratio, homogeneity of effect between trials” value in the data set with patients with ALS (p=0.062, 95% confidence interval 0.11 to 1.06) was 0.34. In addition, the “Increase in absolute creatine concentration by MRS” value in data set [1] (frontal cortex) was 7.5%. Besides, the concentration at 16 weeks in data set [1] (human, serum, oral, 8 g/day, week 16, baseline 46.4 (SD=35.7), SD=259.9, read-out: Average serum creatine level) came out at 382 µM. Further, in data set [1] (human, serum, oral, at washout after 8 g/day for 16 weeks, SD=29.5, read-out: Average serum creatine level), the concentration at 24 weeks worked out at 51.8 µM. Moreover, the “Increase in absolute creatine concentration by MRS” value in data set [1] (occipital cortex) is 13%. Besides, the “Mean (SD) change in total UPDRS” value in data set [2] (baseline to 12 months or time symptomatic therapy needed, creatine 10 g/day, minocycline 200 mg/day, worst change score imputed) is recorded as 5.6 (8.69). Moreover, the Futility analysis outcome in data set [2] (threshold 7.46 (30% less than 10.65 DATATOP historical progression)) is listed as “could not be rejected as futile”. For the same molecule, the “Dose tolerated by all subjects during dose escalation” value in data set [3] (10 subjects, 5-gram increments, two weeks per dose level, no withdrawals) is given as “up to 40 grams/day”. In addition, the “Changes in UHDRS subscores” value in data set [3] (dose escalation 10-40 grams per day) is “not significant”. For the same molecule, in data set [3] (in vivo), the “Adverse events at high doses” value was “increased numbers of adverse events”; the Average creatinine level is 1.28 ± 0.16 mg/dL; the BUN levels result was “did not increase”; the “Serious adverse events, laboratory abnormalities, EKG” value is “no serious adverse events, no significant laboratory abnormalities and no EKG alterations”. Further, in data set [3] (in vivo), the “Tolerability at selected dose” value was “excellent tolerability”.
